# System: tissue engineered human skin model (EpiDerm™)
# Test: In vitro skin irritation test, EpiDerm (EPI-200-SIT), MTT assay
# Type: cell-based
# Conditions: 60 minutes exposure, relative to negative control, irritant if below 50%
# Protocol: A 24 tissue insert EpiDerm™ skin irritation kit was purchased from MatTek In Vitro Life Science Laboratories, Slovakia (EPI-200-SIT). On receipt of the kit, the tissues were visually assessed for integrity and conditioned by transferring into sterile 6 well plates, adding 0.9 ml medium and incubating for 60 minutes at 37° C., 5% CO2, 95% RH. After 60 minutes, the tissues were removed, placed in fresh medium and further incubated for 18 hours.
# To test for irritancy potential, 30 μl of liquid formulation, plus positive and negative control or 25 mg semisolid (gel/moisturiser) were applied to surface of each test tissue insert. After dosing the inserts were incubated for 35 minutes (37° C., 5% CO2, 95% RH). […]
# Once extraction was complete, 200 μl samples from each tissue were added to a 96 well plate in duplicate for the MTT assay of cell viability, and 200 μl isopropanol to 4 wells as blanks. The optical density of each well was read using a spectrophotometric plate reader at 570 nm without using a reference filter.
# The mean OD (optical density) from the blank wells was subtracted from the OD of each well. The mean OD from each duplicate was then obtained and the individual relative tissue viability for each tissue treated with a test substance (TS), the positive control (PC) and the negative control (NC) calculated according to the following formulas: […]
smiles,measurement,value
CCCCCCCCCCCCOS(=O)(=O)[O-].[Na+] [5% SDS],Mean RV % (relative viability),9.0%
